≈ marks a conversion by molar mass, not a printed value. Read-outs that look alike come from different tables or passages of the source.
Key:
[1] = test system: M. tuberculosis ATCC 27294 (H37Rv); assay: MIC by agar proportion method, standard strain; format: cell-based; details: Mycobacterium tuberculosis
[2] = test system: M. tuberculosis ATCC 35812 (Kurono); assay: MIC by agar proportion method, standard strain; format: cell-based; details: Mycobacterium tuberculosis, ATCC35812
[3] = test system: M. tuberculosis ATCC 35838 (H37Rv RIF-R); assay: MIC by agar proportion method, standard strain; format: cell-based; details: Mycobacterium tuberculosis
[4] = test system: M. tuberculosis ATCC 35822 (H37Rv INH-R); assay: MIC by agar proportion method, standard strain; format: cell-based; details: Mycobacterium tuberculosis
[5] = test system: M. tuberculosis ATCC 35837 (H37Rv EMB-R); assay: MIC by agar proportion method, standard strain; format: cell-based; details: Mycobacterium tuberculosis
[6] = test system: M. tuberculosis ATCC 35820 (H37Rv SM-R); assay: MIC by agar proportion method, standard strain; format: cell-based; details: Mycobacterium tuberculosis
[7] = test system: M. tuberculosis ATCC 35828 (H37Rv PZA-R); assay: MIC by agar proportion method, standard strain; format: cell-based; details: Mycobacterium tuberculosis
M. africanum ATCC 25420 = assay: MIC by agar proportion method, standard strain; format: cell-based; details: ATCC25420
M. bovis ATCC BAA-935 = assay: microbe, parasite or virus in culture; format: cell-based; details: Mycobacterium tuberculosis variant bovis, ATCCBAA935
M. caprae ATCC BAA-824 = assay: MIC by agar proportion method, standard strain; format: cell-based; details: ATCCBAA824
M. microti ATCC 11152 = assay: MIC by agar proportion method, standard strain; format: cell-based; details: ATCC11152
[8] = test system: M. pinnipedii ATCC BAA-688; assay: MIC by agar proportion method, standard strain; format: cell-based; details: ATCCBAA688
M. tuberculosis Kurono = format: in vivo; details: in vivo
[9] = target: recombinant M. bovis BCG-derived DprE1 (Mycobacterium tuberculosis, UniProt P9WJF1); assay: biochemical
[10] = test system: intracellular M. tuberculosis H37Rv; assay: microbe, parasite or virus in culture; format: cell-based
[11] = test system: intracellular M. tuberculosis Kurono; assay: microbe, parasite or virus in culture; format: cell-based
[12] = ATCC 27294 (H37Rv), agar proportion method, […], read-out: MIC
[13] = ATCC 35812 (Kurono), agar proportion method, read-out: MIC
[14] = […], agar proportion method, read-out: MIC
[15] = M. africanum ATCC 25420, agar proportion method, read-out: MIC
[16] = M. caprae ATCC BAA-824, agar proportion method, read-out: MIC
[17] = M. microti ATCC 11152, agar proportion method, read-out: MIC
[18] = M. pinnipedii ATCC BAA-688, agar proportion method, read-out: MIC

Sequence of recombinant M. bovis BCG-derived DprE1 (P9WJF1 whole entry): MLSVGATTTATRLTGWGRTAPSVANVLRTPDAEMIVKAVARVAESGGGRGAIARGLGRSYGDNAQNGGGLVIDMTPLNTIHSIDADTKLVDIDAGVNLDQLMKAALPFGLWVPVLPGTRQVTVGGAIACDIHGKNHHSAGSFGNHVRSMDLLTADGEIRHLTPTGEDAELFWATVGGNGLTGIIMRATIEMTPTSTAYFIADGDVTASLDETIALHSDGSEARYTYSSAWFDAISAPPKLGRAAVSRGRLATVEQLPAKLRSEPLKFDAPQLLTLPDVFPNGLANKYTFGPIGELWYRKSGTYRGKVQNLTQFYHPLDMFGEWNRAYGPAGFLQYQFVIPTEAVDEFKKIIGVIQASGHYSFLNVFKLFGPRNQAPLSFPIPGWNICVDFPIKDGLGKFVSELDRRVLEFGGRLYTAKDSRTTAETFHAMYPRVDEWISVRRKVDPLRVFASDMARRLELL

What does the source list for `C[C@]1(COc2ccc(N3CCC(Oc4ccc(OC(F)(F)F)cc4)CC3)cc2)Cn2cc([N+](=O)[O-])nc2O1` [DMD, delamanid]?
MIC [1, 12]: 0.004 µg/mL (≈ 0.00748 µM); MIC [2, 13]: 0.004 µg/mL (≈ 0.00748 µM); MIC [3, 14]: 0.004 µg/mL (≈ 0.00748 µM); MIC [4, 14]: 0.004 µg/mL (≈ 0.00748 µM); MIC [5, 14]: 0.004 µg/mL (≈ 0.00748 µM); MIC [6, 14]: 0.004 µg/mL (≈ 0.00748 µM); MIC [7, 14]: 0.004 µg/mL (≈ 0.00748 µM); MIC (M. africanum ATCC 25420; [15]): 0.001 µg/mL (≈ 0.00187 µM); MIC (M. bovis ATCC BAA-935): 0.004 µg/mL (≈ 0.00748 µM); MIC (M. caprae ATCC BAA-824; [16]): 0.002 µg/mL (≈ 0.00374 µM); MIC (M. microti ATCC 11152; [17]): 0.002 µg/mL (≈ 0.00374 µM); MIC [8, 18]: 0.002 µg/mL (≈ 0.00374 µM); lung CFU compared to the vehicle group, single agent (M. tuberculosis Kurono): significant decrease of lung CFU

Which MIC [1] does the source give for `CC(=O)NC[C@H]1CN(c2ccc(N3CCOCC3)c(F)c2)C(=O)O1` [LZD, linezolid] here?
Its MIC is 1 µg/mL (≈ 2.96 µM).

And the MIC [2]?
Its MIC is 1 µg/mL (≈ 2.96 µM).

What about the MIC [3] of the same compound?
Its MIC is 0.5 µg/mL (≈ 1.48 µM).

What about the MIC [4] of the same compound?
The MIC was 1 µg/mL (≈ 2.96 µM).

What about the MIC [5] of the same compound?
The MIC was 0.5 µg/mL (≈ 1.48 µM).

And the MIC [6]?
Its MIC is 0.5 µg/mL (≈ 1.48 µM).

And the MIC [7]?
The MIC was 1 µg/mL (≈ 2.96 µM).

And the MIC (M. africanum ATCC 25420)?
The MIC was 0.5 µg/mL (≈ 1.48 µM).

What about the MIC (M. bovis ATCC BAA-935) of the same compound?
The MIC was 0.5 µg/mL (≈ 1.48 µM).

And the MIC (M. caprae ATCC BAA-824)?
Its MIC is 0.25 µg/mL (≈ 0.741 µM).

What about the MIC (M. microti ATCC 11152) of the same compound?
Its MIC is 0.5 µg/mL (≈ 1.48 µM).

What about the MIC [8] of the same compound?
Its MIC is 1 µg/mL (≈ 2.96 µM).

`COc1nc2ccc(Br)cc2cc1[C@@H](c1ccccc1)[C@@](O)(CCN(C)C)c1cccc2ccccc12` [BDQ, bedaquiline] was tested. Which MIC [1, 12] did it give?
The MIC was 0.063 µg/mL (≈ 0.113 µM).

And the MIC [2, 13]?
Its MIC is 0.063 µg/mL (≈ 0.113 µM).

And the MIC [3, 14]?
Its MIC is 0.063 µg/mL (≈ 0.113 µM).

What about the MIC [4, 14] of the same compound?
The MIC was 0.063 µg/mL (≈ 0.113 µM).

What about the MIC [5, 14] of the same compound?
The MIC was 0.063 µg/mL (≈ 0.113 µM).

And the MIC [6, 14]?
The MIC was 0.063 µg/mL (≈ 0.113 µM).

What about the MIC [7, 14] of the same compound?
The MIC was 0.13 µg/mL (≈ 0.234 µM).

What about the MIC (M. africanum ATCC 25420; [15]) of the same compound?
Its MIC is 0.25 µg/mL (≈ 0.45 µM).

And the MIC (M. bovis ATCC BAA-935)?
The MIC was 0.13 µg/mL (≈ 0.234 µM).

And the MIC (M. caprae ATCC BAA-824; [16])?
Its MIC is 0.13 µg/mL (≈ 0.234 µM).

And the MIC (M. microti ATCC 11152; [17])?
The MIC was 0.063 µg/mL (≈ 0.113 µM).

What about the MIC [8, 18] of the same compound?
Its MIC is 0.13 µg/mL (≈ 0.234 µM).

And the “lung CFU compared to the vehicle group, single agent” value (M. tuberculosis Kurono)?
The value was “significant decrease of lung CFU”.

Which IC50 [9] does the source give for `C[C@H]1COC2(CCN(c3nc(=O)c4cc(C(F)(F)F)cc([N+](=O)[O-])c4s3)CC2)O1` [BTZ043] here?
Its IC50 is 403 nM.

Which IC50 [9] does the source give for `NNC(=O)c1ccncc1` [INH, isoniazid] here?
Its IC50 is over 10000 nM.

Which results are given for `CO[C@H]1/C=C/O[C@@]2(C)Oc3c(C)c(O)c4c(O)c(c(/C=N/N5CCN(C)CC5)c(O)c4c3C2=O)NC(=O)/C(C)=C\C=C\[C@H](C)[C@H](O)[C@@H](C)[C@@H](O)[C@@H](C)[C@H](OC(C)=O)[C@@H]1C` [RIF, rifampin]?
MIC [1]: 0.25 µg/mL (≈ 0.304 µM); MIC [2]: 0.25 µg/mL (≈ 0.304 µM); MIC [3]: > 16 µg/mL; MIC [4]: 0.5 µg/mL (≈ 0.608 µM); MIC [5]: 0.25 µg/mL (≈ 0.304 µM); MIC [6]: 0.25 µg/mL (≈ 0.304 µM); MIC [7]: 1 µg/mL (≈ 1.22 µM); MIC (M. africanum ATCC 25420): 0.25 µg/mL (≈ 0.304 µM); MIC (M. bovis ATCC BAA-935): 0.063 µg/mL (≈ 0.0766 µM); MIC (M. caprae ATCC BAA-824): 0.13 µg/mL (≈ 0.158 µM); MIC (M. microti ATCC 11152): 0.13 µg/mL (≈ 0.158 µM); MIC [8]: 0.5 µg/mL (≈ 0.608 µM); bactericidal activity against intracellular bacilli [10]: killed the intracellular bacilli; IC90 ([10]; Mycobacterium tuberculosis, H37RV, THP-1, read-out: 90% inhibitory concentration (IC90)): 1.15 µg/mL (≈ 1.4 µM); bactericidal activity against intracellular bacilli [11]: killed the intracellular bacilli; IC90 ([11]; Mycobacterium tuberculosis, THP-1, read-out: 90% inhibitory concentration (IC90)): 0.565 µg/mL (≈ 0.686 µM)

How did the MIC [1, 12] turn out when `COc1c(N2C[C@@H]3CCCN[C@@H]3C2)c(F)cc2c(=O)c(C(=O)O)cn(C3CC3)c12` [MXF, moxifloxacin] was run?
The MIC was 0.5 µg/mL (≈ 1.25 µM).

And the MIC [2, 13]?
The MIC was 0.13 µg/mL (≈ 0.324 µM).

And the MIC [3, 14]?
Its MIC is 0.25 µg/mL (≈ 0.623 µM).

What about the MIC [4, 14] of the same compound?
Its MIC is 0.25 µg/mL (≈ 0.623 µM).

And the MIC [5, 14]?
The MIC was 0.25 µg/mL (≈ 0.623 µM).

And the MIC [6, 14]?
Its MIC is 0.5 µg/mL (≈ 1.25 µM).

And the MIC [7, 14]?
Its MIC is 0.5 µg/mL (≈ 1.25 µM).

And the MIC (M. africanum ATCC 25420; [15])?
Its MIC is 0.25 µg/mL (≈ 0.623 µM).

What about the MIC (M. bovis ATCC BAA-935) of the same compound?
Its MIC is 0.13 µg/mL (≈ 0.324 µM).

What about the MIC (M. caprae ATCC BAA-824; [16]) of the same compound?
The MIC was 0.063 µg/mL (≈ 0.157 µM).

What about the MIC (M. microti ATCC 11152; [17]) of the same compound?
Its MIC is 0.063 µg/mL (≈ 0.157 µM).

What about the MIC [8, 18] of the same compound?
The MIC was 0.25 µg/mL (≈ 0.623 µM).

How did the “bactericidal activity against intracellular bacilli” value ([10]; H37Rv in THP-1-derived macrophage-like cells, 3 days) turn out when `[H]/N=C(/N)N[C@H]1[C@H](O)[C@@H](O)[C@H](O[C@@H]2O[C@@H](C)[C@](O)(C=O)[C@H]2O[C@@H]2O[C@@H](CO)[C@H](O)[C@@H](O)[C@@H]2NC)[C@@H](N/C(N)=N\[H])[C@@H]1O` [STR, streptomycin] was run?
The value was “no bactericidal activity”.

And the “bactericidal activity against intracellular bacilli” value ([11]; Kurono in THP-1-derived macrophage-like cells, 3 days)?
Its value is “no bactericidal activity”.

How did the MIC [1, 12] turn out when `C[C@H]1COc2c(N3CCN(C)CC3)c(F)cc3c(=O)c(C(=O)O)cn1c23` [LVX, levofloxacin] was run?
The MIC was 0.5 µg/mL (≈ 1.38 µM).

And the MIC [2, 13]?
Its MIC is 0.5 µg/mL (≈ 1.38 µM).

What about the MIC [3, 14] of the same compound?
Its MIC is 0.5 µg/mL (≈ 1.38 µM).

What about the MIC [4, 14] of the same compound?
The MIC was 0.5 µg/mL (≈ 1.38 µM).

What about the MIC [5, 14] of the same compound?
Its MIC is 0.5 µg/mL (≈ 1.38 µM).

And the MIC [6, 14]?
Its MIC is 0.5 µg/mL (≈ 1.38 µM).

And the MIC [7, 14]?
Its MIC is 0.5 µg/mL (≈ 1.38 µM).

What about the MIC (M. africanum ATCC 25420; [15]) of the same compound?
Its MIC is 0.25 µg/mL (≈ 0.692 µM).

What about the MIC (M. bovis ATCC BAA-935) of the same compound?
The MIC was 0.25 µg/mL (≈ 0.692 µM).

And the MIC (M. caprae ATCC BAA-824; [16])?
The MIC was 0.25 µg/mL (≈ 0.692 µM).

And the MIC (M. microti ATCC 11152; [17])?
The MIC was 0.25 µg/mL (≈ 0.692 µM).

And the MIC [8, 18]?
The MIC was 0.25 µg/mL (≈ 0.692 µM).

And the “lung CFU compared to the vehicle group, single agent” value (M. tuberculosis Kurono)?
The value was “significant decrease of lung CFU”.

From paper PMC7269503 (Antimicrobial Agents and Chemotherapy, 2020)
